pIC50: −log10 of the molar value.
Columns and labels:
Type in all cases: functional, cell-based
[1] = tested on: BaF3; assay: Cytotoxicity against mouse BaF3 cells measured after 8 days; settings: BaF3, 192 h
[2] = tested on: JJN-3; assay: Cytotoxicity against human JJN-3 cells measured after 8 days; settings: JJN-3, 192 h
[3] = Cytotoxicity against human KHM-1B cells measured after 8 days; settings: 192 h
[4] = Cytotoxicity against human OCI-M1 cells measured after 8 days; settings: OCI-M1, 192 h
[5] = tested on: NCI-H187; assay: Cytotoxicity against human NCI-H187 cells measured after 8 days; settings: NCI-H187, 192 h
[6] = Cytotoxicity against human NCI-H2135 cells measured after 8 days; settings: NCI-H2135, 192 h
[7] = tested on: NCI-H2170; assay: Cytotoxicity against human NCI-H2170 cells measured after 8 days; settings: NCI-H2170, 192 h
[8] = Cytotoxicity against human NCI-H2461 cells measured after 8 days; settings: NCI-H2461, 192 h
[9] = tested on: MHH-ES-1; assay: Cytotoxicity against human MHH-ES-1 cells measured after 8 days; settings: MHH-ES-1, 192 h
[10] = tested on: NCI-H929; assay: Cytotoxicity against human NCI-H929 cells measured after 8 days; settings: NCI-H929, 192 h
[11] = tested on: NCI-H417; assay: Cytotoxicity against human NCI-H417 cells measured after 8 days; settings: NCI-H417, 192 h
[12] = tested on: SCLC-21H; assay: Cytotoxicity against human SCLC-21H cells measured after 8 days; settings: 192 h
[13] = tested on: Detroit 562; assay: Cytotoxicity against human Detroit 562 cells measured after 8 days; settings: Detroit 562, 192 h
[14] = Cytotoxicity against human COV362 cells measured after 8 days; settings: COV362, 192 h
[15] = tested on: T98G; assay: Cytotoxicity against human T98G cells measured after 8 days; settings: 192 h
[16] = tested on: BT-20; assay: Cytotoxicity against human BT-20 cells measured after 8 days; settings: BT-20, 192 h
[17] = Cytotoxicity against human HCC1159 cells measured after 8 days; settings: HCC1159, 192 h
[18] = Cytotoxicity against human MCAS cells measured after 8 days; settings: 192 h
[19] = tested on: MCF-10A; assay: Cytotoxicity against human MCF-10A CDH1-/- cells measured after 8 days; settings: 192 h
[20] = tested on: RMG-I; assay: Cytotoxicity against human RMG-I cells measured after 8 days; settings: 192 h
[21] = Cytotoxicity against human RMUG-S cells measured after 8 days; settings: 192 h
[22] = tested on: CAPAN-1; assay: Cytotoxicity against human CAPAN-1 cells measured after 8 days; settings: CAPAN-1, 192 h
[23] = Cytotoxicity against human JJ012 cells measured after 8 days; settings: JJ012, 192 h
[24] = tested on: BOKU; assay: Cytotoxicity against human BOKU cells measured after 8 days; settings: 192 h
[25] = Cytotoxicity against human HCA1 cells measured after 8 days; settings: HCA1, 192 h
[26] = tested on: ME-180; assay: Cytotoxicity against human ME-180 cells measured after 8 days; settings: ME-180, 192 h
[27] = Cytotoxicity against human KP-3 cells measured after 8 days; settings: KP-3, 192 h
[28] = Cytotoxicity against human KPP14388 cells measured after 8 days; settings: KPP14388, 192 h
[29] = Cytotoxicity against human KR7251 cells measured after 8 days; settings: KR7251, 192 h
[30] = tested on: PaTu 8988t; assay: Cytotoxicity against human PaTu 8988t cells measured after 8 days; settings: 192 h
[31] = tested on: PANC-03-27; assay: Cytotoxicity against human Panc 03.27 cells measured after 8 days; settings: PANC-03-27, 192 h
[32] = Cytotoxicity against human CL-11 cells measured after 8 days; settings: CL-11, 192 h
[33] = Cytotoxicity against human CoCM-1 cells measured after 8 days; settings: CoCM-1, 192 h
[34] = Cytotoxicity against human PK-45H cells measured after 8 days; settings: 192 h
[35] = tested on: PSN1; assay: Cytotoxicity against human PSN1 cells measured after 8 days; settings: PSN1, 192 h
[36] = Cytotoxicity against human TCC-Pan2 cells measured after 8 days; settings: TCC-Pan2, 192 h
[37] = tested on: YAPC; assay: Cytotoxicity against human YAPC cells measured after 8 days; settings: 192 h
[38] = Cytotoxicity against mouse TRAMP-C1 cells measured after 8 days; settings: TRAMP-C1, 192 h
[39] = Cytotoxicity against human 624-mel cells measured after 8 days; settings: Homo sapiens, 624, 192 h
[40] = tested on: KYSE-140; assay: Cytotoxicity against human KYSE-140 cells measured after 8 days; settings: KYSE-140, 192 h
[41] = tested on: KYSE-450; assay: Cytotoxicity against human KYSE-450 cells measured after 8 days; settings: KYSE-450, 192 h
[42] = tested on: KYSE-510; assay: Cytotoxicity against human KYSE-510 cells measured after 8 days; settings: KYSE-510, 192 h
[43] = tested on: G-361; assay: Cytotoxicity against human G-361 cells measured after 8 days; settings: G-361, 192 h
[44] = Cytotoxicity against human Hs 852.T cells measured after 8 days; settings: 192 h
[45] = tested on: HCT-8; assay: Cytotoxicity against human HCT-8 cells measured after 8 days; settings: HCT-8, 192 h
[46] = tested on: ACHN; assay: Cytotoxicity against human ACHN cells measured after 8 days; settings: 192 h
[47] = tested on: SK-MEL-2; assay: Cytotoxicity against human SK-MEL-2 cells measured after 8 days; settings: SK-MEL-2, 192 h
[48] = tested on: PLC-PRF-5; assay: Cytotoxicity against human PLCPRF5 cells measured after 8 days; settings: PLC-PRF-5, 192 h
[49] = tested on: NUGC-3; assay: Cytotoxicity against human NUGC-3 cells measured after 8 days; settings: NUGC-3, 192 h
[50] = Cytotoxicity against human SNU-216 cells measured after 8 days; settings: SNU-216, 192 h
[51] = tested on: COR-L279; assay: Cytotoxicity against human COR-L279 cells measured after 8 days; settings: COR-L279, 192 h
[52] = tested on: COR-L88; assay: Cytotoxicity against human COR-L88 cells measured after 8 days; settings: COR-L88, 192 h
[53] = tested on: CGTH-W-1; assay: Cytotoxicity against human CGTH-W-1 cells measured after 8 days; settings: CGTH-W-1, 192 h
[54] = tested on: UMUC3; assay: Cytotoxicity against human UMUC3 cells measured after 8 days; settings: UMUC3, 192 h
[55] = Cytotoxicity against mouse KLN205 cells measured after 8 days; settings: KLN205, 192 h
[56] = tested on: EFE-184; assay: Cytotoxicity against human EFE-184 cells measured after 8 days; settings: EFE-184, 192 h
[57] = tested on: HEC-1-A; assay: Cytotoxicity against human HEC-1-A cells measured after 8 days; settings: 192 h
[58] = tested on: HEC-1B cell line; assay: Cytotoxicity against human HEC-1B cell line measured after 8 days; settings: 192 h
[59] = Cytotoxicity against human HEC-265 cells measured after 8 days; settings: HEC-265, 192 h
[60] = Cytotoxicity against human NJG cells measured after 8 days; settings: 192 h
[61] = tested on: RL95-2; assay: Cytotoxicity against human RL95-2 cells measured after 8 days; settings: RL95-2, 192 h

## C/C=C/Cn1cc(-c2ccc(C(C)(C)O)cc2OC)c2cc[nH]c2c1=O
[1]
  pIC50: 4.70
[2]
  pIC50: 4.75
[3]
  pIC50: 4.70
[4]
  pIC50: 4.97
[5]
  pIC50: 4.70
[6]
  pIC50: 4.70
[7]
  pIC50: 4.70
[8]
  pIC50: 4.70
[9]
  pIC50: 4.70
[10]
  pIC50: 4.70
[11]
  pIC50: 4.70
[12]
  pIC50: 4.70
[13]
  pIC50: 4.70
[14]
  pIC50: 4.70
[15]
  pIC50: 4.70
[16]
  pIC50: 4.70
[17]
  pIC50: 4.70
[18]
  pIC50: 4.70
[19]
  pIC50: 4.70
[20]
  pIC50: 4.70
[21]
  pIC50: 4.70
[22]
  pIC50: 4.70
[23]
  pIC50: 4.70
[24]
  pIC50: 4.70
[25]
  pIC50: 4.70
[26]
  pIC50: 4.70
[27]
  pIC50: 4.70
[28]
  pIC50: 4.70
[29]
  pIC50: 4.70
[30]
  pIC50: 4.70
[31]
  pIC50: 4.70
[32]
  pIC50: 4.70
[33]
  pIC50: 4.70
[34]
  pIC50: 4.70
[35]
  pIC50: 4.70
[36]
  pIC50: 4.70
[37]
  pIC50: 4.70
[38]
  pIC50: 4.70
[39]
  pIC50: 4.70
[40]
  pIC50: 4.70
[41]
  pIC50: 4.70
[42]
  pIC50: 4.70
[43]
  pIC50: 4.70
[44]
  pIC50: 4.70
[45]
  pIC50: 4.70
[46]
  pIC50: 4.70
[47]
  pIC50: 4.70
[48]
  pIC50: 4.70
[49]
  pIC50: 4.70
[50]
  pIC50: 4.70
[51]
  pIC50: 4.70
[52]
  pIC50: 4.70
[53]
  pIC50: 4.70
[54]
  pIC50: 4.70
[55]
  pIC50: 4.70
[56]
  pIC50: 4.70
[57]
  pIC50: 4.70
[58]
  pIC50: 4.70
[59]
  pIC50: 4.70
[60]
  pIC50: 4.70
[61]
  pIC50: 4.70

## C/C=C/Cn1cc(-c2ccc(C(=O)N3CCOCC3)cc2)c2cc[nH]c2c1=O
[1]
  pIC50: 4.70
[2]
  pIC50: 4.91
[3]
  pIC50: 4.70
[4]
  pIC50: 4.94
[5]
  pIC50: 4.70
[6]
  pIC50: 4.70
[7]
  pIC50: 4.70
[8]
  pIC50: 4.70
[9]
  pIC50: 4.70
[10]
  pIC50: 5.22
[11]
  pIC50: 4.70
[12]
  pIC50: 4.70
[13]
  pIC50: 4.70
[14]
  pIC50: 4.70
[15]
  pIC50: 4.70
[16]
  pIC50: 4.70
[17]
  pIC50: 4.70
[18]
  pIC50: 4.70
[19]
  pIC50: 4.70
[20]
  pIC50: 4.71
[21]
  pIC50: 4.70
[22]
  pIC50: 4.70
[23]
  pIC50: 4.70
[24]
  pIC50: 4.70
[25]
  pIC50: 4.70
[26]
  pIC50: 4.70
[27]
  pIC50: 4.70
[28]
  pIC50: 4.70
[29]
  pIC50: 4.70
[30]
  pIC50: 4.70
[31]
  pIC50: 4.70
[32]
  pIC50: 4.70
[33]
  pIC50: 4.70
[34]
  pIC50: 4.70
[35]
  pIC50: 4.70
[36]
  pIC50: 4.70
[37]
  pIC50: 4.70
[38]
  pIC50: 4.71
[39]
  pIC50: 4.70
[40]
  pIC50: 4.70
[41]
  pIC50: 4.70
[42]
  pIC50: 4.70
[43]
  pIC50: 4.70
[44]
  pIC50: 4.70
[45]
  pIC50: 4.70
[46]
  pIC50: 4.70
[47]
  pIC50: 4.70
[48]
  pIC50: 4.70
[49]
  pIC50: 4.70
[50]
  pIC50: 4.70
[51]
  pIC50: 4.70
[52]
  pIC50: 4.70
[53]
  pIC50: 4.70
[54]
  pIC50: 4.70
[55]
  pIC50: 4.70
[56]
  pIC50: 4.70
[57]
  pIC50: 4.70
[58]
  pIC50: 4.98
[59]
  pIC50: 4.70
[60]
  pIC50: 4.70
[61]
  pIC50: 4.70
